pIC50: −log10 of the molar value. Strand notation (5' to 3'): a small letter for the sugar, then the base; units joined by * are phosphorothioate-linked, units joined directly phosphodiester-linked; [ ] holds rarer units or linkages, { } end groups; capitals alone tell only the bases. e = 2'-O-(2-methoxyethyl) (MOE); [5mC] = 5-methylcytosine; d = 2'-deoxy (DNA)
How the values were obtained:
human Factor 11 mRNA = assay: Dose-dependent inhibition of human Factor 11 in HepG2 cells, electroporation 123.46-10,000 nM (Example 31); type: cell-based
Summary of the method: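 HepG2 cells were electroporated with antisense oligonucleotide at 123.46, 370.37, 1,111.11, 3,333.33 and 10,000 nM and harvested about 16 hours later. Factor 11 mRNA was quantified by qRT-PCR and normalised to total RNA (RIBOGREEN). Inhibition is expressed relative to untreated cells.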

blood coagulation = assay: PT and aPTT assay in cynomolgus monkeys (Example 45); type: in vivo; details: platelet poor plasma
Method: (§1) Groups, each consisting of two male and three female monkeys, were injected subcutaneously with ISIS 416838, ISIS 416850, ISIS 416858, ISIS 416864, or ISIS 417002 in escalating doses. Antisense oligonucleotide was administered to the monkeys at 5 mg/kg three times per a week for week 1; 5 mg/kg twice per week for weeks 2 and 3; 10 mg/kg three times per week for week 4; 10 mg/kg twice per week for weeks 5 and 6; 25 mg/kg three times per week for week 7; and 25 mg/kg twice per week for weeks 8, 9, 10, 11, and 12. One control group, consisting of two male and three female monkeys, was injected subcutaneously with PBS according to the same dosing regimen. An additional experimental group, consisting of two male and three female monkeys, was injected subcutaneously with ISIS 416850 in a chronic, lower dose regimen. Antisense oligonucleotide was administered to the monkeys at 5 mg/kg three times per week for week 1; 5 mg/kg twice per week for week 2 and 3; 10 mg/kg three times per week for week 4; and 10 mg/kg twice per week for weeks 5 to 12. Body weights were measured weekly. Blood samples were collected 14 days and 5 days before the start of treatment and subsequently once per week for Factor 11 protein activity analysis in plasma, fibrinogen measurement, PT and aPTT measurements, bleeding times, and measurement of various hematologic factors. On day 85, the monkeys were euthanized by exsanguination while under deep anesthesia, and organs harvested for further analysis.
Blood samples were collected in tubes containing sodium citrate. PT and aPTT were determined in duplicate with an ACL 9000 coagulation instrument (Instrumentation Laboratory, Italy). The results were interpolated on a standard curve of serial dilutions citrated control monkey plasma tested to give a reported result in percent normal.
Prothrombin Time (PT) and Activated Partial Thromboplastin Time (aPTT) were measured using platelet poor plasma (PPP) from monkeys treated with ISIS oligonucleotides. PT and aPTT values are provided in Tables 116 and 117 and are reported as International Normalized Ratio (INR) values. INR values for PT and aPTT were determined by dividing the PT or aPTT value for each experimental group by the PT or aPTT for the PBS treated group. This ratio was then raised to the power of the International Sensitivity Index (ISI) of the tissue factor used. The ISIS oligonucleotide, ISIS 416850, given with the chronic dose regimen is distinguished from the other oligonucleotides with an asterisk (*).

[1] = Bleeding assay, Surgicutt Jr. device (Example 45); type: in vivo, cynomolgus monkeys; parameters: unit not given here
Method: as §1
On different days during the treatment period, bleeding assay was performed using a Surgicutt Jr. device (ITC, New Jersey). Monkeys were placed in monkey chair with their arm placed in a steady support. The arm was lightly shaved and a sphygmomanometer was placed on the upper arm. The cuff of the sphygmomanometer was inflated to 40 mm Hg and this pressure was maintained throughout the procedure. The area on the upper arm to be incised was cleansed with an antiseptic swab and the Surgicutt Jr device was used to make an incision over the lateral aspect, volar surface of the forearm, parallel to and 5 cm below the antecubital crease. At the exact moment the incision was made, a stopwatch was started. Every 30 seconds, blood from the incision was blotted out using a blotting paper without directly touching the incision, so that formation of the platelet plug was not disturbed. Blood was blotted out every 30 seconds until blood no longer stained the paper. The stopwatch was then stopped and the bleeding time determined. The sphygmomanometer was removed from the animal's arm, the incision site was antiseptically swabbed and a wound closure strip applied. The ISIS oligonucleotide, ISIS 416850, given with the chronic dose regimen is distinguished from the other oligonucleotides with an asterisk (*).

[2] = day 15, escalating dose regimen
[3] = day 22, escalating dose regimen
[4] = day 29, escalating dose regimen
[5] = day 36, escalating dose regimen
[6] = day 43, escalating dose regimen
[7] = day 50, escalating dose regimen
[8] = day 57, escalating dose regimen
[9] = day 64, escalating dose regimen
[10] = day 71, escalating dose regimen
[11] = day 78, escalating dose regimen
[12] = day 85, escalating dose regimen
[13] = day −5, escalating dose regimen
[14] = day −14, escalating dose regimen
[15] = day 8, chronic dose regimen (*)
[16] = day 15, chronic dose regimen (*)
[17] = day 22, chronic dose regimen (*)
[18] = day 29, chronic dose regimen (*)
[19] = day 36, chronic dose regimen (*)
[20] = day 43, chronic dose regimen (*)
[21] = day 50, chronic dose regimen (*)
[22] = day −5, chronic dose regimen (*)
[23] = day −14, chronic dose regimen (*)

For “445522 (antisense eG*e[5mC]*eA*e[5mC]*eA*dG*dT*dT*dT*d[5mC]*dT*dG*dG*e[5mC]*eA*eG*eG*e[5mC]) [compound 445522]”, the “Percent inhibition of Factor 11 mRNA at 123.47 nM” value (human Factor 11 mRNA; electroporation, 123.47 nM, approx. 16 hours, relative to untreated control cells) was 0%, the “Percent inhibition of Factor 11 mRNA at 370.37 nM” value (human Factor 11 mRNA; electroporation, 370.37 nM, approx. 16 hours, relative to untreated control cells) was 0% and the “Percent inhibition of Factor 11 mRNA at 1,111.11 nM” value (human Factor 11 mRNA; electroporation, 1,111.11 nM, approx. 16 hours, relative to untreated control cells) was 44%. For the same substance, the “Percent inhibition of Factor 11 mRNA at 3,333.33 nM” value (human Factor 11 mRNA; electroporation, 3,333.33 nM, approx. 16 hours, relative to untreated control cells) was 63%, the “Percent inhibition of Factor 11 mRNA at 10,000.0 nM” value (human Factor 11 mRNA; electroporation, 10,000.0 nM, approx. 16 hours, relative to untreated control cells) was 74% and the pIC50 (human Factor 11 mRNA; electroporation, Factor 11 mRNA expression) was 5.54.
For “ISIS 416838: MOE gapmer, nucleobases 1018 to 1042 of SEQ ID NO: 1 (Table 6) (antisense GCAACCGGGATGATGAGTGC; MOE gapmer, wing and gap sizes not given here)”, the “PT ratio (INR)” value (blood coagulation; day 8, escalating dose regimen) was 1.03, the “aPTT ratio (INR)” value (blood coagulation; day 8, escalating dose regimen) was 1.07 and the “PT ratio (INR)” value (blood coagulation; [2]) was 1.03. The “aPTT ratio (INR)” value (blood coagulation; [2]) was 1.05, the “PT ratio (INR)” value (blood coagulation; [3]) was 1.07 and the “aPTT ratio (INR)” value (blood coagulation; [3]) was 1.20. For the same substance, the “PT ratio (INR)” value (blood coagulation; [4]) was 1.03, the “aPTT ratio (INR)” value (blood coagulation; [4]) was 1.19 and the “PT ratio (INR)” value (blood coagulation; [5]) was 1.05. The “aPTT ratio (INR)” value (blood coagulation; [5]) was 1.20, the “PT ratio (INR)” value (blood coagulation; [6]) was 1.03 and the “aPTT ratio (INR)” value (blood coagulation; [6]) was 1.18. For the same substance, the “PT ratio (INR)” value (blood coagulation; [7]) was 1.02, the “aPTT ratio (INR)” value (blood coagulation; [7]) was 1.25 and the “PT ratio (INR)” value (blood coagulation; [8]) was 1.04. For the same substance, the “aPTT ratio (INR)” value (blood coagulation; [8]) was 1.21, the “PT ratio (INR)” value (blood coagulation; [9]) was 1.04 and the “aPTT ratio (INR)” value (blood coagulation; [9]) was 1.18. For the same substance, the “PT ratio (INR)” value (blood coagulation; [10]) was 1.02, the “aPTT ratio (INR)” value (blood coagulation; [10]) was 1.15 and the “PT ratio (INR)” value (blood coagulation; [11]) was 1.04. The “aPTT ratio (INR)” value (blood coagulation; [11]) was 1.19, the “PT ratio (INR)” value (blood coagulation; [12]) was 1.05 and the “aPTT ratio (INR)” value (blood coagulation; [12]) was 1.22. The “PT ratio (INR)” value (blood coagulation; [13]) was 1.00, the “aPTT ratio (INR)” value (blood coagulation; [13]) was 1.00 and the “PT ratio (INR)” value (blood coagulation; [14]) was 1.00. For the same substance, the “aPTT ratio (INR)” value (blood coagulation; [14]) was 1.00, the bleeding time [1, 2] was 167 and the bleeding time [1, 3] was 165. The bleeding time [1, 5] was 166, the bleeding time [1, 6] was 120 and the bleeding time [1, 8] was 238. The bleeding time [1, 9] was 131, the bleeding time [1, 11] was 145 and the bleeding time [1, 12] was 201. The bleeding time [1, 13] was 150 and the bleeding time [1, 14] was 200.
In the case of “ISIS 416850: MOE gapmer, nucleobases 1275 to 1318 of SEQ ID NO: 1 (Table 8) (antisense TGCACAGTTTCTGGCAGGCC; MOE gapmer, wing and gap sizes not given here)”, the “PT ratio (INR)” value (blood coagulation; [15]) was 1.03, the “aPTT ratio (INR)” value (blood coagulation; [15]) was 1.12 and the “PT ratio (INR)” value (blood coagulation; day 8, escalating dose regimen) was 1.00. The “aPTT ratio (INR)” value (blood coagulation; day 8, escalating dose regimen) was 1.05, the “PT ratio (INR)” value (blood coagulation; [16]) was 1.06 and the “aPTT ratio (INR)” value (blood coagulation; [16]) was 1.07. The “PT ratio (INR)” value (blood coagulation; [2]) was 1.02, the “aPTT ratio (INR)” value (blood coagulation; [2]) was 1.05 and the “PT ratio (INR)” value (blood coagulation; [17]) was 1.06. For the same substance, the “aPTT ratio (INR)” value (blood coagulation; [17]) was 1.21, the “PT ratio (INR)” value (blood coagulation; [3]) was 1.02 and the “aPTT ratio (INR)” value (blood coagulation; [3]) was 1.13. The “PT ratio (INR)” value (blood coagulation; [18]) was 1.00, the “aPTT ratio (INR)” value (blood coagulation; [18]) was 1.26 and the “PT ratio (INR)” value (blood coagulation; [4]) was 1.03. For the same substance, the “aPTT ratio (INR)” value (blood coagulation; [4]) was 1.13, the “PT ratio (INR)” value (blood coagulation; [19]) was 1.06 and the “aPTT ratio (INR)” value (blood coagulation; [19]) was 1.34. For the same substance, the “PT ratio (INR)” value (blood coagulation; [5]) was 1.02, the “aPTT ratio (INR)” value (blood coagulation; [5]) was 1.26 and the “PT ratio (INR)” value (blood coagulation; [20]) was 1.02. For the same substance, the “aPTT ratio (INR)” value (blood coagulation; [20]) was 1.22, the “PT ratio (INR)” value (blood coagulation; [6]) was 1.01 and the “aPTT ratio (INR)” value (blood coagulation; [6]) was 1.17. The “PT ratio (INR)” value (blood coagulation; [21]) was 0.98, the “aPTT ratio (INR)” value (blood coagulation; [21]) was 1.35 and the “PT ratio (INR)” value (blood coagulation; [7]) was 1.02. The “aPTT ratio (INR)” value (blood coagulation; [7]) was 1.68, the “PT ratio (INR)” value (blood coagulation; [8]) was 1.04 and the “aPTT ratio (INR)” value (blood coagulation; [8]) was 1.59. The “PT ratio (INR)” value (blood coagulation; [9]) was 1.03, the “aPTT ratio (INR)” value (blood coagulation; [9]) was 1.64 and the “PT ratio (INR)” value (blood coagulation; [10]) was 1.03. The “aPTT ratio (INR)” value (blood coagulation; [10]) was 1.76, the “PT ratio (INR)” value (blood coagulation; [11]) was 1.05 and the “aPTT ratio (INR)” value (blood coagulation; [11]) was 1.88. For the same substance, the “PT ratio (INR)” value (blood coagulation; [12]) was 1.04, the “aPTT ratio (INR)” value (blood coagulation; [12]) was 1.99 and the “PT ratio (INR)” value (blood coagulation; [22]) was 1.00. The “aPTT ratio (INR)” value (blood coagulation; [22]) was 1.00, the “PT ratio (INR)” value (blood coagulation; [13]) was 1.00 and the “aPTT ratio (INR)” value (blood coagulation; [13]) was 1.00. The “PT ratio (INR)” value (blood coagulation; [23]) was 1.00, the “aPTT ratio (INR)” value (blood coagulation; [23]) was 1.00 and the “PT ratio (INR)” value (blood coagulation; [14]) was 1.00. The “aPTT ratio (INR)” value (blood coagulation; [14]) was 1.00, the bleeding time [1, 16] was 149 and the bleeding time [1, 2] was 165. The bleeding time [1, 17] was 143, the bleeding time [1, 3] was 151 and the bleeding time [1, 19] was 221. The bleeding time [1, 5] was 137, the bleeding time [1, 20] was 156 and the bleeding time [1, 6] was 216. The bleeding time [1, 8] was 195, the bleeding time [1, 9] was 201 and the bleeding time [1, 11] was 203. The bleeding time [1, 12] was 201, the bleeding time [1, 22] was 93 and the bleeding time [1, 13] was 127. For the same substance, the bleeding time [1, 23] was 177 and the bleeding time [1, 14] was 172.

Source: patent publication US20230263822A1, “MODULATION OF FACTOR 11 EXPRESSION” (Ionis Pharmaceuticals, Inc., priority 2008, published 2023)
